Experimental data from PubChem BioAssay (NCI).
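Interpolation was linear, between the two tested concentrations surrounding the appropriate level; five concentrations were tested over 48 hours in 96-well plates. TGI is the concentration that stops growth completely.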

Experiments:
Experiment in all cases: inhibition of tumour cell growth, NCI panel, 48 h
[1] = system: NCI/ADR-RES ovarian
[2] = system: CCRF-CEM leukemia
[3] = system: SK-MEL-28 melanoma
[4] = system: MDA-MB-435
[5] = system: IGROV1 ovarian
[6] = system: A549 NSCLC
[7] = system: HOP-62 NSCLC
[8] = system: NCI-H522 lung
[9] = system: SF-539 CNS
[10] = system: HOP-92 NSCLC
[11] = system: SNB-75 CNS
[12] = system: PC-3 prostate
[13] = system: ACHN renal
[14] = system: UACC-257 melanoma
[15] = system: TK-10 renal
[16] = system: COLO 205 colon
[17] = system: SF-268 CNS
[18] = system: NCI-H460 lung
[19] = system: NCI-H23 lung
[20] = system: DU-145 prostate
[21] = system: SR leukemia
[22] = system: CAKI-1 renal
[23] = system: OVCAR-4 ovarian
[24] = system: MDA-MB-231 breast
[25] = system: OVCAR-8 ovarian
[26] = system: SN12C renal
[27] = system: MDA-N
[28] = system: EKVX NSCLC
[29] = system: SW-620 colon
[30] = system: MOLT-4 leukemia
[31] = system: SNB-19 CNS
[32] = system: RXF 393 renal
[33] = system: HCT-116 colon
[34] = system: OVCAR-3 ovarian
[35] = system: MCF7 breast
[36] = system: RPMI-8226 leukemia
[37] = system: UO-31 renal
[38] = system: U251 CNS
[39] = system: OVCAR-5 ovarian
[40] = system: K-562 leukemia
[41] = system: SK-OV-3 ovarian
[42] = system: MALME-3M melanoma
[43] = system: KM12 colon
[44] = system: NCI-H226 lung
[45] = system: HS 578T breast
[46] = system: UACC-62 melanoma
[47] = system: SK-MEL-2 melanoma
[48] = system: HT29 colon
[49] = system: 786-0 renal
[50] = system: SF-295 CNS
[51] = system: LOX IMVI melanoma
[52] = system: SK-MEL-5 melanoma
[53] = system: HCT-15 colon
[54] = system: HL-60(TB) leukemia
[55] = system: M14 melanoma
[56] = system: A498 renal
[57] = system: BT-549 breast
[58] = system: HCC-2998 colon

O=C(O)CCCNc1ncc2c(n1)-c1ccccc1OC2
TGI [1]: > 100 µM
TGI [2]: > 100 µM
TGI [3]: > 100 µM
TGI [4]: > 100 µM
TGI [5]: > 100 µM
TGI [6]: > 100 µM
TGI [7]: > 100 µM
TGI [8]: > 100 µM
TGI [9]: > 100 µM
TGI [10]: > 100 µM
TGI [11]: > 100 µM
TGI [12]: > 100 µM
TGI [13]: > 100 µM
TGI [14]: > 100 µM
TGI [15]: > 100 µM
TGI [16]: > 100 µM
TGI [17]: > 100 µM
TGI [18]: > 100 µM
TGI [19]: > 100 µM
TGI [20]: > 100 µM
TGI [21]: > 100 µM
TGI [22]: > 100 µM
TGI [23]: > 100 µM
TGI [24]: > 100 µM
TGI [25]: > 100 µM
TGI [26]: > 100 µM
TGI [27]: > 100 µM
TGI [28]: > 100 µM
TGI [29]: > 100 µM
TGI [30]: > 100 µM
TGI [31]: > 100 µM
TGI [32]: > 100 µM
TGI [33]: > 100 µM
TGI [34]: > 100 µM
TGI [35]: > 100 µM
TGI [36]: > 100 µM
TGI [37]: > 100 µM
TGI [38]: > 100 µM
TGI [39]: > 100 µM
TGI [40]: > 100 µM
TGI [41]: > 100 µM
TGI [42]: > 100 µM
TGI [43]: > 100 µM
TGI [44]: > 100 µM
TGI [45]: > 100 µM
TGI [46]: > 100 µM
TGI [47]: > 100 µM
TGI [48]: > 100 µM
TGI [49]: > 100 µM
TGI [50]: > 100 µM
TGI [51]: > 100 µM
TGI [52]: > 100 µM
TGI [53]: > 100 µM
TGI [54]: > 100 µM
TGI [55]: > 100 µM

CC(O)(C#N)CC(O)(C(F)(F)Cl)C(F)(F)Cl (stereo not drawn)
TGI [1]: > 10 µM
TGI [3]: > 10 µM
TGI [4]: > 10 µM
TGI [5]: > 10 µM
TGI [6]: > 10 µM
TGI [9]: > 10 µM
TGI [10]: > 10 µM
TGI [11]: > 10 µM
TGI [12]: > 10 µM
TGI [13]: > 10 µM
TGI [15]: > 10 µM
TGI [16]: > 10 µM
TGI [17]: > 10 µM
TGI [19]: > 10 µM
TGI [20]: > 10 µM
TGI [22]: > 10 µM
TGI [23]: > 10 µM
TGI [24]: > 10 µM
TGI [25]: > 10 µM
TGI [56]: > 10 µM
TGI [26]: > 10 µM
TGI [27]: > 10 µM
TGI [28]: > 10 µM
TGI [29]: > 10 µM
TGI [31]: > 10 µM
TGI [32]: > 10 µM
TGI [33]: > 10 µM
TGI [34]: > 10 µM
TGI [37]: > 10 µM
TGI [38]: > 10 µM
TGI [39]: > 10 µM
TGI [43]: > 10 µM
TGI [44]: > 10 µM
TGI [48]: > 10 µM
TGI [50]: > 10 µM
TGI [52]: > 10 µM
TGI [53]: > 10 µM
TGI [55]: > 10 µM

S=C(N/N=C/c1ccccn1)N1CC2CCC(CC2)C1
TGI [3]: 17.4 µM
TGI [4]: 15.1 µM
TGI [6]: 14.2 µM
TGI [7]: 0.461 µM
TGI [8]: 3.64 µM
TGI [9]: 0.287 µM
TGI [10]: 13.9 µM
TGI [11]: 0.868 µM
TGI [12]: 13 µM
TGI [13]: 2.15 µM
TGI [14]: < 0.039 µM
TGI [15]: 1.82 µM
TGI [17]: 14.8 µM
TGI [18]: 0.207 µM
TGI [19]: 7.7 µM
TGI [20]: 12 µM
TGI [22]: 1.82 µM
TGI [23]: 20.4 µM
TGI [25]: 0.252 µM
TGI [56]: 2.93 µM
TGI [26]: 0.645 µM
TGI [27]: 13.1 µM
TGI [28]: 7.05 µM
TGI [29]: 14.5 µM
TGI [31]: 14.3 µM
TGI [57]: 12.5 µM
TGI [32]: 3.19 µM
TGI [33]: 3.88 µM
TGI [34]: 13.9 µM
TGI [37]: 2.24 µM
TGI [38]: 4.6 µM
TGI [39]: 18 µM
TGI [58]: 18.6 µM
TGI [41]: 5.7 µM
TGI [42]: 11.4 µM
TGI [43]: 7.76 µM
TGI [44]: 1.53 µM
TGI [45]: 30.6 µM
TGI [46]: 0.531 µM
TGI [47]: 15.5 µM
TGI [48]: 17.3 µM
TGI [49]: 0.242 µM
TGI [50]: 11.1 µM
TGI [51]: 12.4 µM
TGI [53]: 14.9 µM
TGI [54]: 0.143 µM
TGI [55]: 0.209 µM

CC(=O)C1C(=O)C(=O)N(c2ccc([N+](=O)[O-])cc2)C1=O (stereo not drawn)
TGI [1]: > 100 µM
TGI [2]: > 100 µM
TGI [3]: > 100 µM
TGI [4]: > 100 µM
TGI [5]: > 100 µM
TGI [6]: > 100 µM
TGI [7]: > 100 µM
TGI [8]: > 100 µM
TGI [9]: > 100 µM
TGI [10]: > 100 µM
TGI [11]: > 100 µM
TGI [12]: > 100 µM
TGI [13]: > 100 µM
TGI [14]: > 100 µM
TGI [15]: > 100 µM
TGI [16]: > 100 µM
TGI [17]: > 100 µM
TGI [18]: > 100 µM
TGI [19]: > 100 µM
TGI [20]: > 100 µM
TGI [22]: > 100 µM
TGI [23]: > 100 µM
TGI [24]: > 100 µM
TGI [25]: > 100 µM
TGI [26]: > 100 µM
TGI [27]: > 100 µM
TGI [28]: > 100 µM
TGI [29]: > 100 µM
TGI [30]: > 100 µM
TGI [31]: > 100 µM
TGI [57]: > 100 µM
TGI [32]: > 100 µM
TGI [33]: > 100 µM
TGI [34]: > 100 µM
TGI [35]: > 100 µM
TGI [37]: > 100 µM
TGI [38]: > 100 µM
TGI [39]: > 100 µM
TGI [58]: > 100 µM
TGI [41]: > 100 µM
TGI [43]: > 100 µM
TGI [44]: > 100 µM
TGI [45]: > 100 µM
TGI [46]: > 100 µM
TGI [47]: > 100 µM
TGI [48]: > 100 µM
TGI [49]: > 100 µM
TGI [50]: > 100 µM
TGI [51]: > 100 µM
TGI [52]: > 100 µM
TGI [53]: > 100 µM
TGI [54]: > 100 µM
TGI [55]: > 100 µM
